Measurements published in patent US20180291353A1, “MONOFUNCTIONAL ALDEHYDE AND ALCOHOL DEHYDROGENASES FOR PRODUCTION OF FUELS AND COMMODITY CHEMICALS” (The Regents of the University of California, priority 2015, published 2018).

Legend:
[1] = target: T1, ALDH16 (monofunctional aldehyde dehydrogenase, GI 150018649, SEQ ID NO: 16; Strep-ALDH16) (Clostridium diolis, UniProt A0AAV3W6M8); test: In vitro kinetics of aldehyde/alcohol dehydrogenases, oxidation of NADH at 340 nm (purified Strep-ALDH16); format: biochemical
T1 sequence (A0AAV3W6M8 1-468): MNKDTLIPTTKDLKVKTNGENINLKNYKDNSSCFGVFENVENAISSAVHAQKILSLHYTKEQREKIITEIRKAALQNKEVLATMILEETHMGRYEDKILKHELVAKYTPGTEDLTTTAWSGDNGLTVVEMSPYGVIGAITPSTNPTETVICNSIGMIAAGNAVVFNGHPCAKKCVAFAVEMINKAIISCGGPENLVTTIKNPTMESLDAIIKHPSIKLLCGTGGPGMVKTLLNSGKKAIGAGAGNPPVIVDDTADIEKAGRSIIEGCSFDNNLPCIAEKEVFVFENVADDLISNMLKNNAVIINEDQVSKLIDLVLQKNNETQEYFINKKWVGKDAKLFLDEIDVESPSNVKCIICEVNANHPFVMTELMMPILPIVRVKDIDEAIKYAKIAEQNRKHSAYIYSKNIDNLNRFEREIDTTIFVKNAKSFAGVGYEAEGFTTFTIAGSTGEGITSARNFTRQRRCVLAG
Experimental: (§1) Activity of ALDH proteins was measured by monitoring the oxidation of NADH at 340 nm at 30° C. The assay mixture (400 μL) contained 100 μM NADH in 100 mM Tris 1 mM DTT pH 7.5. The reaction was initiated by the addition of substrate. Kinetic parameters (kcat, KM) were determined by fitting the data using Microcal Origin to the equation: vo=vmax [S]/(KM+[S]), where v is the initial rate and [S] is the substrate concentration. Data are reported as mean±s.e. (n=3) unless otherwise noted with standard error derived from the nonlinear curve fitting. Error bars on graphs represent mean±s.d. (n=3). Error in kcat/KM is calculated by propagation of error from the individual kinetic parameters.
(§2) To further explore the potential for expressing monofunctional aldehyde and alcohol dehydrogenases in host cells for the production of alcohols, various aldehyde and alcohol dehydrogenases were purified and isolated to investigate their in vitro kinetic behavior with various C4 and C2 substrates. In particular, the monofunctional aldehyde dehydrogenase identified in FIG. 3 above (GI 150018649, also referred to as ALDH16) was purified (FIG. 4A and FIG. 4B) and the in vitro kinetic behavior of a purified Strep-ALDH16 protein with various C4 and C2 substrates was tested.

[2] = target: T2, AdhE2-ALDH (aldehyde dehydrogenase domain of bifunctional AdhE2, wild type, GI 499193180, SEQ ID NO: 41) (Clostridium acetobutylicum, UniProt Q9ANR5); test: In vitro kinetics of aldehyde/alcohol dehydrogenases, oxidation of NADH at 340 nm (aldehyde dehydrogenase domain of AdhE2)
T2 sequence (Q9ANR5 1-858): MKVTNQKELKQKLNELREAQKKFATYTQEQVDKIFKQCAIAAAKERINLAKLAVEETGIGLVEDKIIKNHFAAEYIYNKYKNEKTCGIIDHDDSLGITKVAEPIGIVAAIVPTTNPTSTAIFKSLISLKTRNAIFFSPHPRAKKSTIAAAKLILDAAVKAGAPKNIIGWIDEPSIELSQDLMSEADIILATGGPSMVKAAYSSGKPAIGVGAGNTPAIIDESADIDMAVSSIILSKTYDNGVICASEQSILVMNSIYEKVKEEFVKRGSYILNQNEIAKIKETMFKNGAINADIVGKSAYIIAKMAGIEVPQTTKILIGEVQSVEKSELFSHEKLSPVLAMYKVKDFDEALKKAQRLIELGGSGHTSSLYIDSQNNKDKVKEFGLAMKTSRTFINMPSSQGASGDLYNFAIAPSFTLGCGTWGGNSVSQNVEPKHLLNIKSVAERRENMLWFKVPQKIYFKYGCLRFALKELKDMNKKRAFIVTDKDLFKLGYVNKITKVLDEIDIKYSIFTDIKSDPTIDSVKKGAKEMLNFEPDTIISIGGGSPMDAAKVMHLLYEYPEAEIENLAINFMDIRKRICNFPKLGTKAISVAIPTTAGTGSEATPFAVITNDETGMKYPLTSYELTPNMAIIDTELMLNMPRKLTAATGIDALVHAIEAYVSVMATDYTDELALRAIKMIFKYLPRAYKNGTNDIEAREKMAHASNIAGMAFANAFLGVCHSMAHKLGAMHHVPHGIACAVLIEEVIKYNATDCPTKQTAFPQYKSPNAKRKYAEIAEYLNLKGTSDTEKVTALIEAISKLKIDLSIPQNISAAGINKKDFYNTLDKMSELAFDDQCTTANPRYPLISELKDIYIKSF

[3] = target: T3, AdhE2-ADH (alcohol dehydrogenase domain of bifunctional AdhE2, wild type, GI 499193180, SEQ ID NO: 41) (Clostridium acetobutylicum, UniProt Q9ANR5); test: In vitro kinetics of aldehyde/alcohol dehydrogenases, oxidation of NADH at 340 nm (alcohol dehydrogenase domain of AdhE2); format: biochemical
T3 construct: alcohol dehydrogenase activity (C-terminal domain) measured
T3 sequence (Q9ANR5 1-858): T2 sequence (Q9ANR5 1-858)
Experimental: as §1, §2

[4] = substrate: CCCC=O; test: as above; format: biochemical; conditions: other: 100 μM NADH, 100 mM Tris, 1 mM DTT, pH 7.5, 30° C., mean±s.e. (n=3)
Experimental: as §1, §2

[5] = substrate: CC=O; test: as above; format: biochemical; conditions: other: 100 μM NADH, 100 mM Tris, 1 mM DTT, pH 7.5, 30° C., mean±s.e. (n=3)
Experimental: as §1, §2

[6] = test system: butanol production pathway; test: Butanol and ethanol production in E. coli MC1.24 (quintuple KO) with bifunctional or monofunctional dehydrogenases (FIG. 5); format: cell-based; conditions: E. coli MC1.24, FIG. 5
Description: FIG. 5 illustrates genetically engineered improvement of a butanol production pathway composed of monofunctional aldehyde and alcohol dehydrogenases. The fuel titer of either butanol or ethanol in E. coli cells expressing the biosynthetic pathway shown in FIG. 6A with various particular alcohol and/or aldehyde dehydrogenases is shown. Specifically, E. coli MC1.24 (quintuple KO) was transformed with pT533-phaA.HBD, pBBR2-aceE.F.lpd and 1: pCWO.trc-ter-adhE2, 2: pCDF3-aldh16, 3: pCWori-ter-aldh16.CaADH, or 4: pCWO.trc-ter-aldh16.CaADH as indicated.
. The cultures were grown at 37° C. in a rotary shaker (200 r.p.m.) and induced with IPTG (1.0 mM) at OD600=0.35-0.45. At this time, the growth temperature was reduced to 30° C., and the culture flasks were sealed with Parafilm M (Pechiney Plastic Packaging) to prevent product evaporation for aerobic cultures. Anaerobic cultures were sealed and the headspace was sparged with argon for 5 minutes immediately follow induction. Aerobic cultures were unsealed for 10 to 30 min every 24 h then resealed with Parafilm M, and additional glucose (1% (w/v)) was added 1 day post-induction. Samples were quantified after 3 d of cell culture.
Samples (2 ml) were removed from cell culture and cleared of biomass by centrifugation at 20,817 g for 2 min using an Eppendorf 5417R centrifuge. The supernatant or cleared medium sample was then mixed in a 9:1 ratio with an aqueous solution containing the isobutanol internal standard (10,000 mg l^−1). These samples were then analyzed on a Trace GC Ultra (Thermo Scientific) using an HP-5MS column (0.25 mm×30 m, 0.25 μM film thickness, J & W Scientific). The oven program was as follows: 75° C. for 3 min, ramp to 300° C. at 45° C. min^−1, 300° C. for 1 min. n-Butanol was quantified by flame ionization detection (FID) (flow: 350 ml min^−1 air, 35 ml min^−1 H2 and 30 ml min^−1 helium). Samples containing n-butanol levels below 500 mg 1^−1 were requantified after extraction of the cleared medium sample or standard (500 μl) with toluene (500 μl) containing the isobutanol internal standard (100 mg 1^−1) using a Digital Vortex Mixer (Fisher) for 5 min set at 2,000. The organic layer was then quantified using the same GC parameters with a DSQII single-quadrupole mass spectrometer (Thermo Scientific) using single-ion monitoring (m/z 41 and 56) concurrent with full scan mode (m/z 35-80). Samples were quantified relative to a standard curve of 2, 4, 8, 16, 31, 63, 125, 250, 500 mg 1^−1 n-butanol for MS detection or 125, 250, 500, 1,000, 2,000, 4,000, 8,000 mg 1^−1 n-butanol for FID detection. Standard curves were prepared freshly during each run and normalized for injection volume using the internal isobutanol standard (100 or 1,000 mg 1^−1 for MS and FID, respectively). […]

[7] = 100 μM NADH, 100 mM Tris, 1 mM DTT, pH 7.5, 30° C., mean±s.e. (n=3)

**Q.** Which results are given for CCCC(=O)SCCNC(=O)CCNC(=O)[C@H](O)C(C)(C)COP(=O)(O)OP(=O)(O)OC[C@H]1O[C@@H](n2cnc3c(N)ncnc32)[C@H](O)[C@@H]1OP(=O)(O)O [butyryl-CoA]?
**A.** kcat [1, 7]: 0.11 ± 0.01 s⁻¹; preference (specificity) for butyryl-CoA over acetyl-CoA ([1]; from Table 4): 73 fold; kcat [2, 7]: 1.2 ± 0.1 s⁻¹; preference for butyryl-CoA over acetyl-CoA ([2]; from Table 4): 8.5 fold

**Q.** For CC(=O)SCCNC(=O)CCNC(=O)[C@H](O)C(C)(C)COP(=O)(O)OP(=O)(O)OC[C@H]1O[C@@H](n2cnc3c(N)ncnc32)[C@H](O)[C@@H]1OP(=O)(O)O [acetyl-CoA], which “higher KM for acetyl-CoA” value ([1]; compared with ALDH domain of AdhE2) is on record?
**A.** Its value is 5 fold.

**Q.** For CC=O [acetaldehyde], which kcat [3, 7] is on record?
**A.** The kcat was 5.6 ± 0.1 s⁻¹.

**Q.** What about the “preference for acetaldehyde over butyraldehyde” value ([3]; from Table 4) of the same molecule?
**A.** Its value is 1.7 fold.

B1: AdhE2-ADH (alcohol dehydrogenase domain of bifunctional AdhE2, wild type, GI 499193180, SEQ ID NO: 41) (Clostridium acetobutylicum) (protein)
chain: T2 sequence (Q9ANR5 1-858)
notes: alcohol dehydrogenase activity (C-terminal domain) measured
**Q.** B1 was tested. Which Km [4] did it give?
**A.** Its Km is 4 ± 0.4 mM.

**Q.** And the kcat [4]?
**A.** The kcat was 2.9 ± 0.1 s⁻¹.

**Q.** And the kcat/Km [4]?
**A.** The kcat/Km was 700 ± 20 M⁻¹ s⁻¹.

**Q.** And the Km [5]?
**A.** Its Km is 4.5 ± 0.3 mM.

B2: AdhE2: bifunctional alcohol and aldehyde dehydrogenase, wild-type AdhE2 (protein, listed as Clostridium acetobutylicum)
chain: T2 sequence (Q9ANR5 1-858)
**Q.** For B2, which butanol production [6] is on record?
**A.** Its butanol production is 4.5 g/L.

**Q.** And the ethanol production [6]?
**A.** The ethanol production was 3 g/L.
